# According to patent publication US6455589B1, “Primary N-hydroxylamines” (The Regents of the University of California, priority 1999, dated 2002):
# Where two headings read alike, the source gives them in different places.
# Key:
# IMR90 cells [1] = experiment: Replicative life span of IMR90 cells (gain in PDLs, delay of senescence); format: cell-based, human; details: for Gain in PDLs: continuous cultivation, compared to control untreated cells
# Procedure: Cultivating IMR90 cells in culture—Normal human […] fibroblasts (IMR90) cells were obtained from the Coriell Institute for Medical Research at a population doubling level (PDL) of 10.85. The PDLs were calculated as log2(D/Do), where D and Do are defined as the density of cells at the time of harvesting and seeding, respectively. Stock cultures were grown in 100 mm Corning tissue culture dishes containing 10 ml of Dulbecco's modified Eagle's medium (DMEM) supplemented with 10% (V/V) fetal bovine serum (Hyclone). Stock cultures were split once a week when near confluence. Cells were harvested by trypsinization for 5 min at 37° C., immediately collected in 5 ml complete DMEM, washed once with 5 ml complete DMEM and incubated for 10-15 min at 37° C. to allow the cells to recover.
# To test the effect of hydroxylamines on replicative life span, IMR90 cells were seeded at 0.5×106 per 100 mm dish. N-hydroxylamines (N-t-butyl hydroxylamine, N-benzyl hydroxylamine, N-methyl hydroxyl- amine) were added either individually (final concentration 10 or 100 μM) or in a combination of all three N-hydroxylamines (30 μM each). The cultures were split after 7 days and seeded with fresh medium supplemented with the hydroxylamines described above. In other experiments the medium of the cultures was replaced after 3 days of seeding with fresh medium and with fresh N-hydroxylamines, the split was done as usual after 7 days from seeding. The effect of PBN on life span was tested as in (5).
# [2] = in vivo; cited from earlier work
# [3] = 8-arm maze test 24 hours following 5 min ischemia; format: in vivo; details: 24 hours post 5 min ischemia, young adult gerbils
# Procedure: In this experiment, young adult (3-4 months of age) gerbils are tested to determine their ability to perform an 8-arm maze test 24 hours following an ischemic event as described above As compared to nonischemic animals, when untreated they committed many more errors. PBN and subject hydroxyamines are administered to some of the test animals. Gerbils treated with high doses of the hydroxylamines have error levels indistinguishable from those of nonischemic animals.
# creatine kinase (CK) = experiment: Protection of creatine kinase against the effects of βAP fragments; format: biochemical
# Text: (§1) While the hydroxylamines and PBN each show the ability to protect GS and CK against the effects of βAP fragments, the hydroxyamines give complete protection and in fact can at least partly reverse the effects of oxidation. In contrast, PBN's effectiveness is quite limited as it asymptotically levels out at a substantially incomplete level of protection.
# [4] = test system: glutamine synthetase (GS); experiment: Protection of glutamine synthetase against the effects of βAP fragments; format: biochemical
# Text: as §1
# [5] = test system: mitochondrial preparations of cerebral cortex; details: relatively high concentrations; cited from earlier work
# [6] = Infarct volume following an ischemic event (Example 18); format: in vivo
# Text: The Ability of the Subject Hydroxylamines to Reduce Infarct Volume Following an Ischemic Event While PBN and the hydroxylamines are both effective at low doses, at high doses hydroxylamines gave the best protection and PBN was toxic.
# [7] = cited from earlier work
# IMR90 cells [8] = details: literature (5); cited from earlier work
# [9] = Depression in body temperature; format: in vivo, mice and gerbils; details: 500 mg/kg
# Procedure: Another undesirable systemic effect which has been observed in vivo with nitrone radical traps is a depression in body temperature. This toxicity can have serious health consequences and also can complicate diagnosis of other conditions. The subject hydroxylamines are administered to mice and gerbils at levels as high as 1000 mg/kg with no measurable temperature decrease. In contrast, PBN gives up to an 8° C. decrease in body temperature at a does of only 500 mg/kg.
# [10] = Neuron loss following brain ischemia and reperfusion injury (Examples 14-16); set-up: species or system gerbils; details: in vivo
# Procedure: The test procedure is that reported by W. Cao, J. M. Carney, A. Duchon, R. A. Floyd and M. Chevion as “Oxygen free radical involvement in ischemia and reperfusion injury to brain, Neuroscience Letters, 88 (1988), 233. In the experiments a test compound is administered to groups of six gerbils i.p. as a single dose 30 min before 5 min bilateral carotid occlusion. The density of neuronal nuclei in a 100 micron is measured. Two controls are present—controls which receive no test compound and controls which receive no test compound and no brain ischemia. The compounds of the invention show advantages as compared to the prior art compounds.
# The general method described above is used but the test compounds are administered i.p. as a single dose 30 min after reperfusion following 5 min ischemia.
# Comparing the Subject Hydroxylamines With PBN to Determine the Relative Effectiveness for Protection of Neuronal Loss when Administered i.v. 60 min after Reperfusion Onset Following 5 min Ischemia in Gerbils Using the General Test Method Described Above
# [11] = format: in vivo; details: 560 mg/kg single i.p. dose
# Procedure: An important advantage of the subject hydroxylamines as compared to PBN, is its markedly diminished toxicity. Acute lethality in C57BL/6L mice is determined based upon varying sizes of single i.p. doses of hydoxylamine. […] The hydroxlamines show no toxicity at doses nearly twenty times as great.
# [12] = Lethality protection in aged gerbils from 10 min ischemia; format: in vivo; details: given 30 min before 10 min ischemia
# Procedure: In this study, subject hydroxylamines and PBN are compared for their ability to impart lethality protection (% survived) in aged gerbils (18-24 months of age, n=12/group) from 10 min ischemia when given 30 min before ischemia.
# [13] = rat, in vivo; cited from earlier work
# in vivo = experiment: in vivo
# Procedure: C57BL/6J and DBA/2J male mice (35-40 g) are tested for the acute lethal effects of adriamycin and the prevention of acute lethality by pretreatment doses of subject hydroxylamines. Mice are injected i.p with either saline or subject hydroxylamines 30 minutes prior to administration of adriamycin.
# [14] = gerbils; cited from earlier work
# [15] = rats; cited from earlier work
# [16] = 300 mg/kg, in combination with adriamycin
smiles,measurement,setting,value
"CC(C)(C)[N+]([O-])=Cc1ccccc1 [PBN, α-Phenyl-N-t-butyl nitrone]",Delay of senescence of IMR90 cells (in words),IMR90 cells [1],old solutions were more effective than fresh solutions
same,Gain in PDLs,IMR90 cells [1]; 200 μM,2.4 PDLs
same,Gain in PDLs,IMR90 cells [1]; 800 μM,14.8 PDLs
same,"Concentration required to achieve nearly a similar gain in PDLs, relative to N-hydroxylamines",IMR90 cells [1]; PBN 800 μM vs N-hydroxylamines 100 μM,8 times higher
same,Age-related oxidative changes in the brains of old gerbils,[2],reverses
same,Errors in 8-arm maze test,[3],less effective
same,Protection of CK against the effects of βAP fragments,creatine kinase (CK),quite limited
same,Protection of GS against the effects of βAP fragments,[4],quite limited
same,Production of hydrogen peroxide,[5],reduces
same,Reduction of infarct volume / toxicity,[6]; high doses,toxic
same,Reduction of infarct volume,[6]; low doses,effective
same,Senescence,[7]; normal mice,delays senescence
same,Senescence,[7]; senescence-accelerated mice,delays senescence
same,Delay of senescence in IMR90,IMR90 cells [8],delays senescence
same,Decrease in body temperature,[9],≤ 8 °C
same,Neuronal density in control gerbils without brain injury,[10],Neither PBN nor the subject hydroxylamines have an effect
same,Acute toxicity,[11],significant toxicity
same,Lethality protection (% survived),[12],only partially effective
same,Mitochondrial decay in the liver of old rats,[13],reverses mitochondrial decay
same,Sedation,"in vivo; 100 mg/kg, in combination with adriamycin",slight sedation
same,Combined toxicity (lethality),in vivo; [16],10-20%
same,Sedation,in vivo; [16],marked sedation
same,Shift in the adriamycin dose-effect curve,in vivo; pretreatment,slight shift to the right
same,Effect after oxidative damage from ischemia/reperfusion injury,[14],neuroprotective effect
same,Effect after oxidative damage from ischemia/reperfusion injury,[15],neuroprotective effect
